Measurements reported in patent US11396517B1, “Exo-aza spiro inhibitors of menin-MLL interaction” (Janssen Pharmaceutica NV, priority 2017, dated 2022).
Like-named read-outs stand apart in the source and are kept apart here.

What was measured:
MV-4-11 [1] = assay: Proliferation assay B (spheroid assay) MV-4-11; format: cell-based, human; conditions: Homo sapiens, MV4-11, 192 h, MV-4-11 cells, confluence at day 8, absolute IC50; read-out: (3b) Spheroid assay MV-4--11 (IC50(μM)) Assay B
Protocol: 3b) Proliferation Assay B
(§1) The anti-proliferative effect of menin/MLL protein/protein interaction inhibitor test compounds was assessed in human leukemia cell lines. The cell lines MV-4-11 and MOLM14 harbor MILL translocations and express the MILL fusion proteins MLL-AF4 and MLL-AF9, respectively, as well as the wildtype protein from the second allele. […] K562 was used as a control cell line containing two MLL wildtype alleles in order to exclude compounds that display general cytotoxic effects.
(§2) MV-4-11 and MOLM14 were cultured in RPMI-1640 (Sigma Aldrich) supplemented with 10% fetal bovine serum (HyClone), 2 mM L-glutamine (Sigma Aldrich) and 50 μg/ml gentamycin (Gibco). K562 were propagated in RPMI-1640 (Sigma Aldrich) supplemented with 20% fetal bovine serum (HyClone), 2 mM L-glutamine (Sigma Aldrich) and 50 μg/ml gentamycin (Gibco).
(§3) In order to assess the anti-proliferative effects, 1,500 MV-4-11, 300 MOLM14 cells or 750 K562 cells were seeded in 200 μl media per well in 96-well round bottom, ultra-low attachment plates (Costar, catalogue number 7007). Cell seeding numbers were chosen based on growth curves to ensure linear growth throughout the experiment. Test compounds were added at different concentrations and the DMSO content was normalized to 0.3%. Cells were incubated for 8 d at 37° C. and 5% CO2. Spheroid like growth was measured in real-time by live-cell imaging (IncuCyteZOOM, Essenbio, 4× objective) acquiring images at day 8. Confluence (%) as a measure of spheroid size was determined using an integrated analysis tool.
In order to determine the effect of the test compounds over time, the confluence in each well as a measure of spheroid size, was calculated. Confluence […] at the beginning of the experiment (t=0) was used as baseline for the calculation.
Absolute IC50 values were calculated as percent change in confluence as follows:
LC=Low Control: cells treated with 1 μM of the cytotoxic agent staurosporin
HC=High Control: Mean confluence (%) (DMSO treated cells) % Effect=100−(100*(Sample−LC)/(HC−LC))
To determine the IC50 a curve is fitted to the plot of % Effect vs Log 10 compound concentration using a sigmoidal fit with a variable slope and fixing the maximum to 100% and the minimum to 0%.

menin = molecular target: T1, menin (Homo sapiens, UniProt O00255, T541A); assay: Menin/MLL homogenous time-resolved fluorescence (HTRF) assay; format: binding; conditions: location 2; read-out: (2) location 2 Menin HTRF assay (IC50 (nM))
T1 construct: Menin (a.a. 1-610-6×his tag)
T1 sequence (O00255 with tags, fused parts or gaps T541A): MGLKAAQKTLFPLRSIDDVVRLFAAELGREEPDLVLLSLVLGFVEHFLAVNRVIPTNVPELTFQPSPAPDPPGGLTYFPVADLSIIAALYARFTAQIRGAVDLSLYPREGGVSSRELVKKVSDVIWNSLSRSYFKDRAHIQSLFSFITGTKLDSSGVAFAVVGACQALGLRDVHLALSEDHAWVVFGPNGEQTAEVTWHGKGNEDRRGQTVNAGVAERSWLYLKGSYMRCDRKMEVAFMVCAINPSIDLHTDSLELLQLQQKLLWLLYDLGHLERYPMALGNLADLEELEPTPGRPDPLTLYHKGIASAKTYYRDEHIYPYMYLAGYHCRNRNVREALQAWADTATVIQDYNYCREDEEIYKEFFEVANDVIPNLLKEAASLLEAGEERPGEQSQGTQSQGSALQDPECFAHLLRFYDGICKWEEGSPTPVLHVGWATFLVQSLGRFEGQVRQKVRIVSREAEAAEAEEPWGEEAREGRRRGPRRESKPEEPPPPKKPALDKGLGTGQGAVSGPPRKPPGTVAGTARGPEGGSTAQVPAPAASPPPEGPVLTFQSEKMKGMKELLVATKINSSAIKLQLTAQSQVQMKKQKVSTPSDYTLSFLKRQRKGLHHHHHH
Method in brief: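 Terbium-labeled menin (aa 1-610, His-tagged; […]) preincubated 5 min with compound, then 75 nM FITC-MBM1 peptide for 15 min, ambient, Tris pH 7.5, 0.5% DMSO. HTRF 520/490 ratio; 11-point 3-fold titration; IC50 from % inhibition fit.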

MOLM14 = assay: Proliferation assay B (spheroid assay) MOLM14; format: cell-based, human; conditions: MOLM14 cells, confluence at day 8, absolute IC50, read-out: (3b) Spheroid assay MOLM14 (IC50(μM)) Assay B
Method in brief: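 Leukemia cells grown as spheroids in ultra-low-attachment round-bottom wells with compound at 0.3% DMSO for 8 d at 37 °C. Confluence imaged at day 8 as spheroid size, normalized between DMSO and 1 μM staurosporine controls; absolute IC50 from sigmoidal fit with bounds fixed at 0 and 100%.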

MV-4-11 [2] = assay: Proliferation assay A (spheroid assay) MV-4-11; format: cell-based, human; conditions: MV-4-11 cells, 8 d, AUC of confluence against time, absolute IC50, read-out: (3a) Spheroid assay MV-4-11 (IC50(μM)) Assay A
Protocol: 3a) Proliferation Assay A
as §1, §2
as §3, with “MOLM14” for “MOLM14 cells”, “monitored” for “measured”, “one image every four hours for 8 d.” for “images at day 8.”
In order to determine the cumulative effect of the test compounds over time, the area under the curve (AUC) in a plot of confluence against time was calculated. Confluence at the beginning of the experiment (t=0) was used as baseline for the AUC calculation.
Absolute IC50 values were calculated according to the following procedure: % Control=(AUC sample/AUC control)*100
AUC control mean AUC of control values (cells without compound/DMSO as vehicle control)
A non-linear curve fit was applied using the least squares (ordinary) fit method to the plot of % control versus compound concentration. Based on this, the absolute IC50 value (half maximal inhibitory concentration of the test compound causing an anti-proliferative effect of 50% relative to the vehicle control) was calculated.

Row | Structure (SMILES) | IC50 (MV-4-11 [1]) [µM] | IC50 (menin) [nM] | IC50 (MOLM14; Homo sapiens, MOLM-14, 192 h) [µM] | IC50 (MV-4-11 [2]; Homo sapiens, MV4-11, 192 h) [µM] | IC50 (MV-4-11 [2]) [µM] | IC50 (MOLM14) [µM]
1 | Fc1ccc(NC2CC3(CCN(c4ncnc5sc(CC(F)(F)F)cc45)C3)C2)cc1 (mixture of isomers) [Compound 158] | 2.41 | 72.2 | 1.98 |  |  | 
2 | N#Cc1ccccc1NC1CC2(CCN(c3ncnc4sc(CC(F)(F)F)cc34)C2)C1 (mixture of isomers) [Compound 162] | 2.84 | 90 | > 3.75 |  |  | 
3 | N#Cc1cccc(NC2CC3(CCN(c4ncnc5sc(CC(F)(F)F)cc45)C3)C2)c1 (mixture of isomers) [Compound 163] | > 3.75 | 77.6 | > 3.75 |  |  | 
4 | N#Cc1ccc(NC2CC3(CCN(c4ncnc5sc(CC(F)(F)F)cc45)C3)C2)cc1 (mixture of isomers) [Compound 164] | 1.09 | 12.2 | 1.97 |  |  | 
5 | CS(=O)(=O)N1CCC(CNC(=O)c2ccc(NC3CC4(CCN(c5ncnc6sc(CC(F)(F)F)cc56)C4)C3)cc2)CC1 (mixture of isomers) [Compound 177] | 1.02 | 16.2 | 1.22 |  |  | 
6 | Cn1nnc2ccc(NC3CC4(CCN(c5ncnc6sc(CC(F)(F)F)cc56)C4)C3)cc21 (mixture of isomers) [Compound 216] | > 3.75 | 38 | > 3.75 |  |  | 
7 | CN1CCN(Cc2cc(NC3CC4(CCN(c5ncnc6sc(CC(F)(F)F)cc56)C4)C3)ccc2C#N)CC1 (mixture of isomers) [Compound 225] | 1.95 | 22.7 |  |  |  | 
8 | CNC(=O)c1ccc(NC2CC3(CCN(c4ncnc5sc(CC(F)(F)F)cc45)C3)C2)cc1NCCN(C)C (mixture of isomers) [Compound 239] | > 3.75 | 33.6 |  |  |  | 
9 | CN1CCN(c2cc(NC3CC4(CCN(c5ncnc6sc(CC(F)(F)F)cc56)C4)C3)ccc2C#N)CC1 (mixture of isomers) [Compound 240] | 1.14 | 8.6 |  |  |  | 
10 | CNC(=O)c1ccc(NC2CC3(CCN(c4ncnc5sc(CC(F)(F)F)cc45)C3)C2)cc1CCCN1CCN(S(C)(=O)=O)CC1 (mixture of isomers) [Compound 251] | > 3.75 | 171 | > 3.75 |  |  | 
11 | CNc1nc(N2CCC3(CC(Nc4ccc(C#N)cn4)C3)C2)c2cc(CC(F)(F)F)sc2n1 (mixture of isomers) [Compound 271] | > 3.75 | 22.5 | > 3.75 |  |  | 
12 | O=c1[nH]c2cc(NC3CC4(CCN(c5ncnc6sc(CC(F)(F)F)cc56)C4)C3)ccc2o1 (mixture of isomers) [Compound 308] | 2.64 | 5.6 | > 3.75 |  |  | 
13 | FC(F)(F)Cc1cc2c(N3CCC4(CC(Nc5ccc6cnoc6c5)C4)C3)ncnc2s1 (mixture of isomers) [Compound 315] | 1.22 | 4.2 | 3.41 |  |  | 
14 | O=c1[nH]c2ccc(NC3CC4(CCN(c5ncnc6sc(CC(F)(F)F)cc56)C4)C3)cc2[nH]1 (mixture of isomers) [Compound 319] | > 3.75 | 17.4 | > 3.75 |  |  | 
15 | O=C(c1ccc(NC2CC3(CCN(c4ncnc5sc(CC(F)(F)F)cc45)C3)C2)cc1)N1CCOCC1 (mixture of isomers) [Compound 333] | 0.12 | 10.3 | 0.14 |  |  | 
16 | COc1cc(NC2CC3(CCN(c4ncnc5sc(CC(F)(F)F)cc45)C3)C2)ccn1 (mixture of isomers) [Compound 341] |  | 50.3 | 3.03 | 0.84 |  | 
17 | Nc1nc(N2CCC3(CC(Nc4ccc5[nH]c(=O)oc5c4)C3)C2)c2cc(CC(F)(F)F)sc2n1 (mixture of isomers) [Compound 384] | > 3.75 | 32.6 | 1.49 |  |  | 
18 | CNc1nc(N2CCC3(CC(Nc4ccc5[nH]c(=O)oc5c4)C3)C2)c2cc(CC(F)(F)F)sc2n1 (mixture of isomers) [Compound 399] | > 3.75 | 26.4 | > 3.75 |  |  | 
19 | CNC(=O)c1ccc(NC2CC3(CCN(c4ncnc5sc(CC(F)(F)F)cc45)C3)C2)cc1 (single isomer, unassigned) [Compound 95] |  | 34.6 |  |  | 1.27 | 0.82
20 | CS(=O)(=O)NCCCNC(=O)c1ccc(NC2CC3(CCN(c4ncnc5sc(CC(F)(F)F)cc45)C3)C2)nc1 (single isomer, unassigned) [Compound 275] | 1.09 | 2.4 |  |  |  | 
21 | CNS(=O)(=O)c1ccc(NC2CC3(CCN(c4ncnc5sc(CC(F)(F)F)cc45)C3)C2)cc1 (single isomer, unassigned) [Compound 318] |  | 8.1 | 3.07 | 0.6 |  | 
22 | FC(F)(F)Cc1cc2c(N3CCC4(CC(Nc5ccc(-c6cn[nH]c6)cc5)C4)C3)ncnc2s1 (single isomer, unassigned) [Compound 327] |  | 8.4 | > 3.75 | 0.56 |  | 
23 | CNC(=O)c1ccc(NC2CC3(CCN(c4nc(NC)nc5sc(CC(F)(F)F)cc45)C3)C2)cc1 (centres unmarked) [Compound 64] |  | 2.4 | 0.92 | 0.14 |  | 
24 | O=C1Cc2ccc(NC3CCC4(C3)CN(c3ncnc5sc(CC(F)(F)F)cc35)C4)cc2N1 (centres unmarked) [Compound 292] |  | 81.3 |  | > 3.75 |  | 
25 | FC(F)(F)Cc1cc2c(N3CC4(CCC(Nc5ccc(-c6cc[nH]n6)cc5)C4)C3)ncnc2s1 (centres unmarked) [Compound 301] |  | 32.3 |  | 1.76 |  | 
26 | FC(F)(F)Cc1cc2c(N3CC4(CCC(Nc5ccc(-c6cn[nH]c6)cc5)C4)C3)ncnc2s1 (centres unmarked) [Compound 302] |  | 509 |  | 2.56 |  | 
